Test results taken from patent US12410160B2 (Gilead Sciences, Inc., priority 2021, dated 2025).
Like-named read-outs stand apart in the source and are kept apart here.

Legend:
HepG2 cells = test: F1P Cell-Based Assay (EC50), 13C6-fructose-1-phosphate in HepG2 cells (cell culture medium or 50% human plasma)
[1] = target: KHK-C expressed in NRK-52E cells (Homo sapiens (Human), UniProt P50053); test: KHK-C Cell-based Assay (EC50), NRK CTG, fructose-mediated ATP-depletion
Experimental: Compounds were tested in a high-throughput 384-well assay format for their ability to attenuate fructose-mediated ATP-depletion in Normal Rat Kidney epithelial cells (NRK-52E) using the Cell-Titer Glo (CTG) assay, which measures cellular ATP levels based on luminescence signal by using the luciferase-luciferin system. Compounds were serially diluted (1:3) in DMSO.
The plates were incubated at 37° C., 5% CO2 for one day. Cells were then transduced on day 2 with 200 MOI of Adenovirus (VQAd KHKC C-(K)-DYK ViraQuest Inc.) using the same medium and method as day-1 to induce KHK-C expression in the cells. Cells were incubated at 37° C., 5% CO2 for one day. On day-3, the medium was changed to DMEM medium (Corning, Catalog #10-014-CM) with 0.5% FBS and Penicillin-Streptomycin after washing the cells twice with sterile PBS on the BioTEK EL406 washer and dispenser. Test compounds were then diluted 200-fold into the assay plates using the BioMek FX and were incubated for 1 hour at 37° C., 5% CO2. 25 mM (final concentration) of fructose was then dispensed into the plates using the BioTEK EL406 dispenser and the plates were incubated at 37° C., 5% CO2 for 48 hours before addition of CTG reagent and measurement of luminescence signal.

human KHK-C = human KHK-C (Homo sapiens (Human), UniProt P50053); test: KHK Biochemical Assay (IC50), ADP-Glo, KHK-C; conditions: average of at least two separate assays
human KHK-C, sequence (P50053 whole entry): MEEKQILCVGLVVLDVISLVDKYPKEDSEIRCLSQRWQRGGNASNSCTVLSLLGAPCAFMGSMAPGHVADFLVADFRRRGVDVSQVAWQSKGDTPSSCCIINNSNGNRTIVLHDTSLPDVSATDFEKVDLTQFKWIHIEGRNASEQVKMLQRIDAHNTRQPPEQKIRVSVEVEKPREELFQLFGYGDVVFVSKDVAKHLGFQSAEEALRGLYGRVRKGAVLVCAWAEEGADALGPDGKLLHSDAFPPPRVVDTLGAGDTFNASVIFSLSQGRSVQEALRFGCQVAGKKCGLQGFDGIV
How it was run: (§1)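 ADP-Glo luminescence measured ADP made over a 4 h room-temperature reaction of ATP plus fructose, started after 30 min compound–enzyme pre-incubation. Buffer: 50 mM Hepes pH 7.4, 140 mM KCl, 5 mM MgCl2, 0.01% Triton-X. Enzyme was His-tagged, BL21 (DE3)-expressed, Ni-NTA-purified; compounds in 1:3 DMSO dilution series.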

human KHK-A = human KHK-A (Homo sapiens (Human), UniProt P50053); test: KHK Biochemical Assay (IC50), ADP-Glo, KHK-A; conditions: average of at least two separate assays
human KHK-A, sequence (P50053 other isoform, or with tags, fused parts or gaps): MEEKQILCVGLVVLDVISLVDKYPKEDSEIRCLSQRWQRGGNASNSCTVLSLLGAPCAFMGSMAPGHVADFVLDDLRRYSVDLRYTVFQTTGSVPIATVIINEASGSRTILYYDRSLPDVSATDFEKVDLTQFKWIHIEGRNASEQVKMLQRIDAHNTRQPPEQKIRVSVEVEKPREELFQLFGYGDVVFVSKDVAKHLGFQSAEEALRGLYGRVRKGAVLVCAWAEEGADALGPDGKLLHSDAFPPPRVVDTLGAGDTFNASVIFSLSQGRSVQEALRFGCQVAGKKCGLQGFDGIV
How it was run: as §1

[2] = Homo sapiens, HepG2, HepG2 cells, 50% human plasma, read-out: F1P 50% HP EC50
[3] = Homo sapiens, HepG2, read-out: F1P 10% FBS EC50, HepG2 cells, cell culture medium (10% FBS)
[4] = HepG2 cells, 50% human plasma, read-out: F1P 50% HP EC50
[5] = read-out: F1P 10% FBS EC50, HepG2 cells, cell culture medium (10% FBS)
[6] = read-out: NRK CTG EC50, NRK-52E cells, Cell-Titer Glo, 25 mM fructose, 48 hours
[7] = read-out: NRK CTG EC50, NRK-52E cells, Cell-Titer Glo, 25 mM fructose

KHK-C expressed in NRK-52E cells, sequence (P50053 whole entry): as the sequence (P50053 whole entry) above

Structure (SMILES)	EC50 (HepG2 cells; [2]) [nM]	EC50 (HepG2 cells; [3]) [nM]	EC50 [1] [nM]	IC50 (human KHK-C) [nM]	IC50 (human KHK-A) [nM]	EC50 (HepG2 cells; [4]) [nM]	EC50 (HepG2 cells; [5]) [nM]	EC50 [1, 6] [nM]	IC50 (human KHK-C; ADP-Glo) [nM]	IC50 (human KHK-A; ADP-Glo) [nM]	EC50 [1, 7] [nM]
C[C@H]1[C@H](O)CN1c1nc(-c2ccc(OC(F)F)c([S@@](C)(=N)=O)c2)c2c(n1)C(F)(F)CC2 (single isomer, unassigned) [Example 533]	8.9	7.3	18.2	3.8	4.4	–	–	–	–	–	–
COc1ccc(-c2nc(N3CC(F)(F)[C@@H]3C)nc3c2CCC3(F)F)cc1[S@@](C)(=N)=O [Example 563, (S)-(5-(2-((S)-3,3-difluoro-2-methylazetidin-1-yl)-7,7-difluoro-6,7-dihydro-5H-cyclopenta[d]pyrimidin-4-yl)-2-methoxyphenyl)(imino)(methyl)-λ^6-sulfanone]	6.7	0.6	5.1	1.7	0.2	–	–	–	–	–	–
C[C@H]1[C@H](O)CN1c1nc(-c2cnc3c(c2)OC[C@@H]3NS(C)(=O)=O)c2c(n1)C(F)(F)CC2 (single isomer, unassigned) [Example 823]	–	–	–	–	–	216	90.6	56.3	6.4	48.2	–
COc1c(Cl)cc(-c2nc(N3C[C@@H](O)[C@@H]3C)nc3c2CCC3(F)F)cc1S(C)(=N)=O (stereo partly drawn) [Example 717, (3-chloro-5-(7,7-difluoro-2-((2S,3R)-3-hydroxy-2-methylazetidin-1-yl)-6,7-dihydro-5H-cyclopenta[d]pyrimidin-4-yl)-2-methoxyphenyl)(imino)(methyl)-λ^6-sulfanone]	> 500	> 500	> 500	> 100	> 100	–	–	–	–	–	–
C[C@H]1[C@H](O)CN1c1nc(-c2ccc3c(c2)COC[C@@]32COC(=O)N2)c2c(n1)C(F)(F)CC2 (single isomer, unassigned) [Example 555]	–	–	–	1.2	30.5	117	59.7	–	–	–	29
CC1OC[C@@]2(COc3cc(-c4nc(N5C[C@@H](O)[C@@H]5C)nc5c4CCC5(F)F)ccc32)NC1=O (single isomer, unassigned) [Example 559]	–	–	–	0.2	7.8	16.3	5.6	–	–	–	3.2
CCN1C(=O)N[C@]2(COc3cc(-c4nc(N5C[C@@H](O)[C@@H]5C)nc5c4CCC5(F)F)ccc32)C1=O (single isomer, unassigned) [Example 697]	23.7	20.1	3.7	0.1	8.6	–	–	–	–	–	–
C[C@H]1[C@H](O)CN1c1nc(-c2ccc3c(c2)OCC32CN(CCO)C(=O)N2)c2c(n1)C(F)(F)CC2 (stereo partly drawn) [Example 700, 6-[7,7-difluoro-2-[(2S,3R)-3-hydroxy-2-methyl-azetidin-1-yl]-5,6-dihydrocyclopenta[d]pyrimidin-4-yl]-1′-(2-hydroxyethyl)spiro[2H-benzofuran-3,4′-imidazolidine]-2′-one]	250	163	37.3	0.2	16.1	–	–	–	–	–	–
COc1ccc(-c2nc(N3C[C@@H](O)[C@@H]3C)nc3c2CCC3(F)F)cc1[S@](C)(=N)=O (single isomer, unassigned) [Example 496]	23.9	9	65.4	7.6	14.4	–	–	–	–	–	–
COc1ccc(-c2nc(N3C[C@@](C)(O)[C@@H]3C)nc3c2CCC3(F)F)cc1[S@@](C)(=N)=O [Example 828, (S)-(5-(7,7-difluoro-2-((2S,3R)-3-hydroxy-2,3-dimethylazetidin-1-yl)-6,7-dihydro-5H-cyclopenta[d]pyrimidin-4-yl)-2-methoxyphenyl)(imino)(methyl)-16-sulfanone]	12.7	6.4	43.1	–	–	–	–	–	9.5	2	–
C[C@H]1[C@H](O)CN1c1nc(-c2ccc3c(c2)[S@](=N)(=O)CCO3)c2c(n1)C(F)(F)CC2 (single isomer, unassigned) [Example 820]	–	–	–	–	–	67.8	20.3	26.5	6.2	14.3	–
C[C@H]1[C@H](O)CN1c1nc(-c2ccc3c(c2)OCC32NC(=O)N(CC(F)(F)F)C2=O)c2c(n1)C(F)(F)CC2 (stereo partly drawn) [Example 699, 6-[7,7-difluoro-2-[(2S,3R)-3-hydroxy-2-methyl-azetidin-1-yl]-5,6-dihydrocyclopenta[d]pyrimidin-4-yl]-3′-(2,2,2-trifluoroethyl)spiro[2H-benzofuran-3,5′-imidazolidine]-2′,4′-dione]	492	85.2	32.8	0.3	88.7	–	–	–	–	–	–
C[C@H]1[C@H](O)CN1c1nc(-c2ccc3c(c2)OCC32NC(=O)OC2(C)C)c2c(n1)C(F)(F)CC2 (stereo partly drawn) [Example 565, 6-(7,7-difluoro-2-((2S,3R)-3-hydroxy-2-methylazetidin-1-yl)-6,7-dihydro-5H-cyclopenta[d]pyrimidin-4-yl)-5′,5′-dimethyl-2H-spiro[benzofuran-3,4′-oxazolidin]-2′-one]	204	50.3	19.3	2.6	32.8	–	–	–	–	–	–
COc1ccc(-c2nc(N3C[C@H](F)[C@@H]3C)nc3c2CCC3(F)F)cc1[S@@](C)(=N)=O [Example 562, (S)-(5-(7,7-difluoro-2-((2S,3S)-3-fluoro-2-methylazetidin-1-yl)-6,7-dihydro-5H-cyclopenta[d]pyrimidin-4-yl)-2-methoxyphenyl)(imino)(methyl)-λ^6-sulfanone]	3.6	1.1	5.8	1.4	0.3	–	–	–	–	–	–
CCCN1C(=O)NC2(COc3cc(-c4nc(N5C[C@@H](O)[C@@H]5C)nc5c4CCC5(F)F)ccc32)C1=O (stereo partly drawn) [Example 693, 6-[7,7-difluoro-2-[(2S,3R)-3-hydroxy-2-methyl-azetidin-1-yl]-5,6-dihydroeyelopenta[d]pyrimidin-4-yl]-3′-propyl-spiro[2H-benzofuran-3,5′-imidazolidine]-2′,4′-dione]	141	22.4	6.4	0.2	47.2	–	–	–	–	–	–
C[C@H]1[C@H](O)CN1c1nc(-c2ccc3c(c2)OCC32NC(=O)N(C)C2=O)c2c(n1)C(F)(F)CC2 (stereo partly drawn) [Example 819, 6-[7,7-difluoro-2-[(2S,3R)-3-hydroxy-2-methyl-azetidin-1-yl]-5,6-dihydrocyclopenta[d]pyrimidin-4-yl]-3′-methyl-spiro[2H-benzofuran-3,5′-imidazolidine]-2′,4′-dione]	10.4	2.9	2	–	–	–	–	–	0.2	14.6	–
C[C@@H]1N(c2nc(-c3ccc(C4(N)COC4)cc3)c3c(n2)C(F)(F)CC3)CC1(F)F [Example 470, (S)-3-(4-(2-(3,3-difluoro-2-methylazetidin-1-yl)-7,7-difluoro-6,7-dihydro-5H-cyclopenta[d]pyrimidin-4-yl)phenyl)oxetan-3-amine]	51	13.4	5	1.9	6.3	–	–	–	–	–	–
C[C@H]1[C@H](O)CN1c1nc(-c2cc3c(c(CNS(C)(=O)=O)c2)OCC3)c2c(n1)C(F)(F)CC2 [Example 761, N-[[5-[7,7-difluoro-2-[(2S,3R)-3-hydroxy-2-methyl-azetidin-1-yl]-5,6-dihydrocyclopenta[d]pyrimidin-4-yl]-2,3-dihydrobenzofuran-7-yl]methyl]methanesulfonamide]	129	28.1	27.4	3.3	–	–	–	–	–	–	–
C[C@H]1CCN1c1nc(-c2ccc3c(c2)OCCNC3=O)c2c(n1)C(F)(F)CC2 [Example 165, (S)-8-(7,7-difluoro-2-(2-methylazetidin-1-yl)-6,7-dihydro-5H-cyclopenta[d]pyrimidin-4-yl)-3,4-dihydrobenzo[f][1,4]oxazepin-5(2H)-one]	49	9.7	2.3	–	–	–	–	–	0.8	–	–
C[C@H]1[C@H](O)CN1c1nc(-c2cccc([S@](C)(=N)=O)c2)c2c(n1)C(F)(F)CC2 (single isomer, unassigned) [Example 493]	41.9	32.4	52.7	11.7	–	–	–	–	–	–	–
C[C@H]1CCN1c1nc2c(c(-c3ccc(C4(O)CS(=O)(=O)C4)cc3)n1)CCC2 [Example 451, (S)-3-hydroxy-3-(4-(2-(2-methylazetidin-1-yl)-6,7-dihydro-5H-cyclopenta[d]pyrimidin-4-yl)phenyl)thietane 1,1-dioxide]	333	77.6	8.7	14.1	–	–	–	–	–	–	–
C[C@H]1[C@H](O)CN1c1nc(-c2ccc3c(c2)OCCC3NS(C)(=O)=O)c2c(n1)C(F)(F)CC2 (stereo partly drawn) [Example 757, N-[7-[7,7-difluoro-2-[(2S,3R)-3-hydroxy-2-methyl-azetidin-1-yl]-5,6-dihydrocyclopenta[d]pyrimidin-4-yl]chroman-4-yl]methanesulfonamide]	59.7	20.6	32.4	2.6	–	–	–	–	–	–	–
